Test results from patent US20260256811A1, “Humoral Immune Activators for the Treatment of Humoral Immunosuppressed Pathologies, Cancer and Infectious Disease and Humoral Immune Suppressors for the Treatment of Inflammatory Diseases” (Navrogen, Inc., priority 2022, published 2026).

Legend:
[1] = biological target: T1, CD16a-158F FcR (Homo sapiens, UniProt P08637); assay: Jurkat-CD16a-158F-luciferase (JKT-CD16a) reporter bioassay; format: cell-based
T1 construct: host or cells: Jurkat (JKT-CD16a luciferase reporter line)
T1 sequence (P08637 17-254): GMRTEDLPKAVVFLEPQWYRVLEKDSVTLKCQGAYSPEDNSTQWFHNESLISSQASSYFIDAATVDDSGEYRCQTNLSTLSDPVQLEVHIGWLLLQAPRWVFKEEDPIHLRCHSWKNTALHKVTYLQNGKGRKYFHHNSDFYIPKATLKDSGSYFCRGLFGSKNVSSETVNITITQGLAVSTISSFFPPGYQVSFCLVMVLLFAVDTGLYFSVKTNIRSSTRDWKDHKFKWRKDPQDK
T1 sequence (P20963 22-164 partner): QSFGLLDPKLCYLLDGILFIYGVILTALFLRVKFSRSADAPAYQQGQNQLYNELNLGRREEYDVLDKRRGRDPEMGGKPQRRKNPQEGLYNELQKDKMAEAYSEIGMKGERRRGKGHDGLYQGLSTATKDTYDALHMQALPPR

[2] = biological target: T2, human CD16a-158F (Homo sapiens, UniProt P08637); assay: ELISA: CD16a-158F-HIS binding to coated pertuzumab (PTZ); details: for enhancement of CD16a-158F binding to IgG (PTZ): 10 μM, P<0.005; for suppression of CD16a-PTZ interaction: 2.5 μg/mL PTZ coat, human CD16a-158F-HIS probe, P≤0.005
T2 construct: made in house
T2 sequence (P08637 with tags, fused parts or gaps): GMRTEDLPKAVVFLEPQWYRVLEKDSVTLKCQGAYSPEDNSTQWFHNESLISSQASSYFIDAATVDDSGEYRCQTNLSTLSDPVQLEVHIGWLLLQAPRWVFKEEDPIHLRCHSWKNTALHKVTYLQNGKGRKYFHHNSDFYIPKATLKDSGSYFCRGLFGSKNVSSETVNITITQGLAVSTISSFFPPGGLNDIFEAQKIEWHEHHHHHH
Procedure: (§1) Analysis of Compound 2 derived analogs described in Example 3 were conducted testing for enhanced CD16a FcR binding to IgG via ELISA. Briefly, 96 well plates were coated with PTZ as described above and probed with CD16a-158F-HIS in the presence of 10 μM parental Compound 2 and R5/R6 Compound analogs 22-34 to assay for those mediating enhanced CD16a-IgG binding. […] To further evaluate the impact of enhanced binding these compounds were tested for enhancing human PBMC ADCC as described above. Human breast cancer SKBR3 cells were plated in black 96-well microplates at 5,000 cell/well in R7.5 and grown overnight at 37° C. in 5% CO2. The next day 50,000 PBMCs in R1 medium were added per well in the presence of 1 or 5 μM of each compound or ethanol (EtOH) vehicle control in triplicates. Wells treated with EtOH and PTZ without PBMCs were used as a negative control. Cultures were incubated for 24 hours at 37° C. in 5% CO2 in triplicate. After incubation, target cell viability was quantified via Cell Titer-GLO (Promega) using a Varioskan plate reader. Units are shown as relative luminescent units (RLU).
Analogs of this class may be useful for suppressing inflammatory diseases. […] The teaching here has shown that the Compound 1, 2, 3 and 4 scaffolds can be utilized to add chemical groups that can enhance their activity for CD16a stimulation. Here we provide an example of how these scaffolds can be used to develop CD16a antagonists to suppress CD16a-IgG interactions and downstream activities, including production of proinflammatory cytokines such as IFNγ. FIGS. 10 and 13 show ELISA binding assays as described in Example 1. Briefly, 96-well clear microplates were coated with 2.5 μg/mL pertuzumab (PTZ) IgG or HSA as negative control (no PTZ). Wells were then probed with human CD16a-158F-HIS with or without compounds to monitor CD16a-PTZ binding. […] These scaffolds embody a primary inventive step that is taught within this application.

[3] = Metabolic stability in mouse liver microsomes; format: in vitro ADME
Procedure: (§2) We next tested Compounds 2, 26, 27 and 33 for metabolic stability using human and mouse microsomes. For each test compound, samples were diluted a final concentration of 2 μg/mL in 25 mM potassium phosphate buffer with liver microsomes of each species at a final concentration of 0.5 mg/mL. The enzyme reaction was initiated by the addition of NADPH reagent at a final concentration of 1 mM. For negative control samples, NADPH reagent was not added. Samples were incubated at 37° C. on a 50-RPM orbital shaker, and an aliquot was removed at pre-determined timepoints at 0, 5, 10, 15, 30, and 60 minutes. Samples were then precipitated with three volume of acetonitrile containing propranolol as an internal standard, and centrifuged for 10 min at 2000 g then analyzed by LC/MS/MS. Note that compounds undergo only Phase I metabolism in liver microsomes in the presence of NADPH cofactors. Data interpretation of results are based on percent parent compound remaining relative to 0-minute incubation samples, from which the elimination half-life is calculated based on the natural log of % compound remaining vs. time plot. The following parameters were calculated to estimate the compound's in vitro metabolic stability: Cmp=concentration of microsomal proteins (mg/mL); t1/2=the half-life (min), where t1/2 is equal to 0.693/slope; CLint=the intrinsic hepatic clearance (μL/min/mg), where CLint is equal to 0.693/(t1/2×Cmp).

[4] = Metabolic stability in human liver microsomes; format: in vitro ADME
Procedure: as §2

[5] = in vivo; details: mouse, po, 100 mg/kg
Procedure: To further determine the pharmacologic properties of Compound 27, we tested for its oral bioavailability and ability to activate NK cells systemically in mice as determined measuring NK cell activation markers IFNγ and TNFα. For oral bioavailability, mice were fed a standard laboratory rodent diet and housed in individual cages on a 12-hour light and 12-hour dark cycle with at […] and relative humidity at 50±20%. Animals are fasted overnight before dosing, with food returned after 6 hours at which time blood samples are obtained. Water is provided ad libitum throughout the study. Compound 27 was prepared by grinding its precipitated powder into fine particles and suspended in 0.5% hydroxypropyl methylcellulose (HPMC) in water. Three animals were dosed via gavage needle for oral administration at 100 mg/kg (10 mL/kg). Blood samples (25-30 μL per sample) were taken via the saphenous vein at 5, 15, 30 minutes, and 1, 2, 4, 6, 8, 24 hours after administration. Additional blood samples (150-200 μL per sample) were taken at 24 hours for cytokine analysis. Blood samples were collected in Greiner MiniCollect K2EDTA tubes, placed on ice, and within 30 minutes, centrifuged at 15,000 g for 5 min to obtain plasma samples with additional 50-100 μLs of each plasma sample collected at 24 hours. All plasma samples were stored at −70° C. until analysis.
Bioanalysis of plasma samples were conducted as follows. Plasma samples were prepared using three volumes of acetonitrile containing internal standard to one volume of plasma to precipitate proteins. Samples were centrifuged at 3000 g for 10 minutes and supernatant removed for analysis by LC-MS/MS. Calibration standards and quality controls were made by preparation of a 1 mg/mL stock solution and subsequently a series of working solutions in methanol:water (1:1, v/v), which were spiked into blank plasma to yield a series of calibration standard samples ranging from 1 ng/ml to 10 μg/mL and quality control samples at three concentration levels (low, middle and high). All incurred plasma samples were treated identically to the calibration standards and quality control samples. LC-MS/MS analysis was performed utilizing multiple reaction monitoring for detection of characteristic ions for each drug candidate, additional related analytes and internal standard. Plasma concentrations are measured as described above to determine a concentration vs. time profile. The area under the plasma concentration vs time curve (AUC) is calculated using the linear trapezoidal method, known by those skilled in the art. Fitting of the data to obtain pharmacokinetic (PK) parameters was carried out using non-compartmental analysis.
Key PK parameters reported following extravascular administration are as follows: terminal half-life t1/2, maximum plasma concentration Cmax, time to reach maximum plasma concentration tmax, area under the plasma concentration vs. time curve AUC, mean residence time MRT, and bioavailability F. All parameters are expressed for individual animals as well as mean, standard deviation, and coefficient of variation and are commonly known by those skilled in the art.

[6] = tested on: SKBR3 cells; assay: ADCC killing of SKBR3 cells via pertuzumab with human PBMCs; format: cell-based; details: 1 or 5 μM, PTZ, 24 hours, P<0.0000075 over Compound 2
Procedure: as §1

[7] = tested on: NK cells; assay: Tolerability and NK cell activation markers after repeated oral dosing in mice; format: in vivo, mouse
Procedure: To determine the tolerability and ability to systemically activate NK cells in mice, we tested orally administered Compound 27 to mice. Six mice were randomized into treatment groups vehicle control (water) and 100 mg/kg Compound 27 all suspended in 0.5% hydroxypropyl methylcellulose. Mice were dosed orally on days 1-5, 7, 9, 11, 13, 15 and sacrificed on day 16 at which time plasma was collected. Tolerability was based on Day 1 bodyweight of each mouse. The maximum tolerated dose is determined as weight loss exceeding 20% or >10% of animals in a group die.
To confirm that oral administration of Compound 27 activated NK cells, the NK activation markers IFNγ and TNFα were measured from day 16 harvested plasma via ELISA using methods described in Example 1. […] These scaffolds embody a primary inventive step that is taught within this application.

In the case of CC(C)=CCC[C@@H](C)[C@H]1CC[C@@]2(C)C3=C(CC[C@]12C)[C@@]1(C)CC[C@H](O)C(C)(C)[C@@H]1CC3 [Compound 1, lanosta-8,24-dien-3β-ol], the “JKT-CD16a activation (luciferase RLU) in the presence of IgG” value ([1]; OV-CD20 target cells plus 2.5 μg/mL rituximab, 12-18 hours, vs vehicle or no compound) was “significant enhancement” and the “JKT-CD16a-158F FcR activation (luciferase RLU) in the absence of IgG antibody” value ([1]; OV-CD20 target cells without antibody, lower levels than with IgG) was “stimulated”.
In the case of CC(C)NCCC[C@@H](C)[C@H]1CC[C@@]2(C)C3CC[C@H]4C(C)(C)[C@@H](O)CC[C@@]45C[C@@]35CC[C@]12C (stereo partly drawn) [Compound 26], the “enhancement of CD16a-158F binding to IgG (PTZ)” value (from here on “enhancement … (PTZ)”) [2] was “significantly enhanced”, the microsomal CLint at 2 μg/mL ([3]; mouse liver microsomes 0.5 mg/mL, 2 μg/mL compound, NADPH, read-out: CLint (μL/min/mg protein) mouse) was 2.16 µL/min/mg and the half-life at 2 μg/mL ([3]; mouse liver microsomes 0.5 mg/mL, 2 μg/mL compound, NADPH, read-out: T½ (minutes) mouse) was 641 min. The microsomal CLint at 2 μg/mL ([4]; human liver microsomes 0.5 mg/mL, 2 μg/mL compound, NADPH, read-out: CLint (μL/min/mg protein) human) was 3.04 µL/min/mg and the half-life at 2 μg/mL ([4]; human liver microsomes 0.5 mg/mL, 2 μg/mL compound, NADPH, read-out: T½ (minutes) human) was 456 min.
For C[C@H](CCCN1CCCCC1)[C@H]1CC[C@@]2(C)C3CC[C@H]4C(C)(C)[C@@H](O)CC[C@@]45C[C@@]35CC[C@]12C (stereo partly drawn) [Compound 27], the “enhancement … (PTZ)” value [2] was “significantly enhanced”, the AUC(0-t) [5] was 7750 ng·h/mL and the Cmax [5] was 511 ng/mL. For the same compound, the Tmax [5] was ≤ 6 h, the bioavailability [5] was 11.7% and the concentration at 24 hours [5] was 242 ng/mL. It also gave a half-life [5] of 18.3 h, a half-life at 2 μg/mL ([3]; mouse, microsomes) of 610 min and a microsomal CLint at 2 μg/mL ([3]; mouse, microsomes) of 2.27 µL/min/mg. The “enhancement of ADCC killing of SKBR3 cells” value [6] was “enhanced ADCC most significantly”, the half-life at 2 μg/mL ([4]; human, microsomes) was 701 min and the microsomal CLint at 2 μg/mL ([4]; human, microsomes) was 1.98 µL/min/mg. For the same compound, the “tolerability of multiple oral dosing (health, body weight)” value ([7]; 100 mg/kg oral on days 1-5, 7, 9, 11, 13, 15) was “well tolerated” and the “plasma NK cell activation markers IFNγ and TNFα” value ([7]; 100 mg/kg oral, day 16 plasma, ELISA, vs vehicle, P<0.0056) was “upregulated”.
In the case of C[C@H](CCC(=O)O)[C@H]1CC[C@@]2(C)C3CC[C@H]4C(C)(C)[C@@H](O)CC[C@@]45C[C@@]35CC[C@]12C (stereo partly drawn) [Compound 29], the “suppression of CD16a-PTZ interaction” value [2] was ~ 49%.
In the case of C[C@H](CCCO)[C@H]1CC[C@@]2(C)C3CC[C@H]4C(C)(C)[C@@H](O)CC[C@@]45C[C@@]35CC[C@]12C (stereo partly drawn) [Compound 31], the “suppression of CD16a-PTZ interaction” value [2] was ~ 49%.
In the case of C[C@H](CCCNCCOCCO)[C@H]1CC[C@@]2(C)C3CC[C@H]4C(C)(C)[C@@H](O)CC[C@@]45C[C@@]35CC[C@]12C (stereo partly drawn) [Compound 32], the “suppression of CD16a-PTZ interaction” value [2] was ~ 49%.
For C[C@H](CCCNCCOCCOCCOCCOCCOCCOCCOCCOCCOCCOCCOCCO)[C@H]1CC[C@@]2(C)C3CC[C@H]4C(C)(C)[C@@H](O)CC[C@@]45C[C@@]35CC[C@]12C (stereo partly drawn) [Compound 33], the “enhancement … (PTZ)” value [2] was “significantly enhanced”, the half-life at 2 μg/mL ([3]; mouse, microsomes) was 65.8 min and the microsomal CLint at 2 μg/mL ([3]; mouse, microsomes) was 21.1 µL/min/mg. The “enhancement of ADCC killing of SKBR3 cells” value [6] was “enhanced ADCC most significantly”, the half-life at 2 μg/mL ([4]; human, microsomes) was 64.5 min and the microsomal CLint at 2 μg/mL ([4]; human, microsomes) was 21.5 µL/min/mg.
